The results in this text go back to the Kinase Knowledgebase extract (Sharma et al. 2016).

The assay concerns the target ROCK2 (human) (UniProt O75116). The assay is described as follows: Inhibition of ROCK2 Kinase Activity.

Molecules are shown by their SMILES. Where only a bound is given, the exact number is not on record here.

Sequence of ROCK2 (human) (O75116 whole entry, looked up): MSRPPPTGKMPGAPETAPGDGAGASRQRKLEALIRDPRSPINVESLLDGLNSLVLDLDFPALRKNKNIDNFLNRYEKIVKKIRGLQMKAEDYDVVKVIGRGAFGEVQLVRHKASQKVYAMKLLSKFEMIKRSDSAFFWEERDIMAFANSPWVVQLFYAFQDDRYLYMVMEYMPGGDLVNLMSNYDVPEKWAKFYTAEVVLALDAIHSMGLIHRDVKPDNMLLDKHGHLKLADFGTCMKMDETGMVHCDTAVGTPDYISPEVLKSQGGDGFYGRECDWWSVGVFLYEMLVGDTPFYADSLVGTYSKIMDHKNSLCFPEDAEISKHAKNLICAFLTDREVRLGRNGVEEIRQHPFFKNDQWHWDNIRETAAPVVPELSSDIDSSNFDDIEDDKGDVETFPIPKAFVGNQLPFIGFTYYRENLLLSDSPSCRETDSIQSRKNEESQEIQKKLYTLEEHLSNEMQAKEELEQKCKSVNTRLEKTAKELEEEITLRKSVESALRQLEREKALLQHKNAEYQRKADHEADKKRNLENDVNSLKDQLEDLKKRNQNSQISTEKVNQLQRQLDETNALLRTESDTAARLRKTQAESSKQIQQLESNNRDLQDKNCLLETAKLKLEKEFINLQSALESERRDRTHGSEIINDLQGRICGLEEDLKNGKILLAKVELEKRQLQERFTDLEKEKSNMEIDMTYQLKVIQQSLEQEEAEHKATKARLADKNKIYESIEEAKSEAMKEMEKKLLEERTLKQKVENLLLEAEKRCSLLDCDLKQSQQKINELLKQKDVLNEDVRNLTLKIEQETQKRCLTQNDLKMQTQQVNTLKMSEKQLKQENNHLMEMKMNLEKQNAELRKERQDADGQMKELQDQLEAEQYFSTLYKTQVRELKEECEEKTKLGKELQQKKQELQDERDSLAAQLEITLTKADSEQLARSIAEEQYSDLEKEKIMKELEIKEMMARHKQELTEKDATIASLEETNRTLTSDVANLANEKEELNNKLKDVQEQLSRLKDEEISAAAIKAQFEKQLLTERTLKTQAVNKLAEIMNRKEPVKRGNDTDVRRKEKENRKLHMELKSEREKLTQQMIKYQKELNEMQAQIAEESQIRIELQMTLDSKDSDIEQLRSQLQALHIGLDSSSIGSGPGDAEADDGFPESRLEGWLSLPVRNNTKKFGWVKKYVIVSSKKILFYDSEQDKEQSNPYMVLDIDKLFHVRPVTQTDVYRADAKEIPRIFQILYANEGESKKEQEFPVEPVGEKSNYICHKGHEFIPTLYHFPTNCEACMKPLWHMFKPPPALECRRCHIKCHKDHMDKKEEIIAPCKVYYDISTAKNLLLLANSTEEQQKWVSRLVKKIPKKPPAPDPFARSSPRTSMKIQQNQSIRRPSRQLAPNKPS

For orientation: IC50 means the point on the concentration scale where inhibition reaches its midpoint. Compound `O=C(NCc1nc(-c2c[nH]c3ncccc23)n[nH]1)c1cc(Cl)ccc1Cl` yielded an IC50 greater than 5 µM.
Next, `Cc1cc(C(=O)NCc2nc(-c3c[nH]c4ncccc34)n[nH]2)ccc1Br`: greater than 5 µM.
Take `COc1cc(C(=O)NCc2nc(-c3c[nH]c4ncccc34)n[nH]2)cc(OC)c1O`: the IC50 was greater than 5 µM.
Consider `O=C(NCc1nc(-c2c[nH]c3ncccc23)n[nH]1)c1cc(F)c(Cl)cc1F`, for which the IC50 is greater than 5 µM.
With `O=C(NCc1nc(-c2ccncc2)n[nH]1)c1cc([N+](=O)[O-])ccc1F`, the IC50 is greater than 5 µM.
`O=C(NCc1nc(-c2c[nH]c3ncccc23)n[nH]1)c1c(O)ccc2ccccc12` returned an IC50 greater than 5 µM.
The compound `O=C(NCc1nc(-c2c[nH]c3ncccc23)n[nH]1)C(O)CCl` (stereo not given) displayed an IC50 greater than 5 µM.
With `CN(C=O)c1ccc(C(=O)NCc2nc(-c3c[nH]c4ncccc34)n[nH]2)cc1`, the concentration for half-maximal inhibition (IC50) was greater than 5 µM.
Next, `O=C(NCc1nc(-c2ccncc2)n[nH]1)c1ccc(Oc2cccc(O)c2)cc1`: no more than 5 µM; `Cc1ccc([N+](=O)[O-])c(C(=O)NCc2nc(-c3ccncc3)n[nH]2)c1`: greater than 5 µM; `CCCCOc1ccc(C(=O)NCc2nc(-c3ccncc3)n[nH]2)cc1`: greater than 5 µM.
Next, `O=C(Cc1ccc(C(F)(F)F)cc1)NCc1nc(-c2ccncc2)n[nH]1`: greater than 5 µM; `CC(=O)Oc1ccccc1C(=O)NCc1nc(-c2c[nH]c3ncccc23)n[nH]1`: greater than 5 µM.
`O=C(NCc1nc(-c2ccncc2)n[nH]1)c1ccccc1C(F)(F)F` displayed an IC50 greater than 5 µM.
To `O=C(CC1Cc2ccccc2C1)NCc1nc(-c2c[nH]c3ncccc23)n[nH]1` belongs greater than 5 µM; to `O=C(NCc1nc(-c2ccncc2)n[nH]1)c1ccc(F)c([N+](=O)[O-])c1`, greater than 5 µM; to `O=C(NCc1nc(-c2c[nH]c3ncccc23)n[nH]1)c1csc2ccccc12`, greater than 5 µM.
As for `O=C(NCc1nc(-c2c[nH]c3ncccc23)n[nH]1)c1cscn1`, the IC50 is greater than 5 µM.
Next, `O=C(NCc1nc(-c2c[nH]c3ncccc23)n[nH]1)c1ccc2c(c1)OCO2`: greater than 5 µM.
Next, `CCOc1ccc2ccccc2c1C(=O)NCc1nc(-c2c[nH]c3ncccc23)n[nH]1`: greater than 5 µM; `CC(C)Oc1ccc(C(=O)NCc2nc(-c3ccncc3)n[nH]2)cc1`: greater than 5 µM.
Next, `O=C(NCc1nc(-c2ccncc2)n[nH]1)c1cccc(Cl)c1O`: no more than 5 µM; `O=C(NCc1nc(-c2c[nH]c3ncccc23)n[nH]1)c1cccc(Cl)c1Cl`: greater than 5 µM; `O=C(NCc1nc(-c2ccncc2)n[nH]1)c1ccsc1`: no more than 5 µM.
For the compound `Cc1ccccc1CCC(=O)NCc1nc(-c2ccncc2)n[nH]1`, the IC50 is greater than 5 µM.
To `COc1ccccc1CCC(=O)NCc1nc(-c2ccncc2)n[nH]1` belongs greater than 5 µM; to `COc1cccc(OC)c1C(=O)NCc1nc(-c2ccncc2)n[nH]1`, greater than 5 µM; to `O=C(NCc1nc(-c2ccncc2)n[nH]1)c1cc(Br)ccc1Cl`, greater than 5 µM.
To `NC(=O)c1cc(-c2ccncc2)n[nH]1` belongs greater than 5 µM.
`O=C(NCc1nc(-c2ccncc2)n[nH]1)c1ccccc1C(=O)c1ccc(F)cc1` returned an IC50 greater than 5 µM.
To `O=C(Cc1ccc2c(c1)OCO2)NCc1nc(-c2ccncc2)n[nH]1` belongs greater than 5 µM; to `O=C(NCc1nc(-c2c[nH]c3ncccc23)n[nH]1)c1cccc(Br)c1`, greater than 5 µM; to `O=C(NCc1nc(-c2c[nH]c3ncccc23)n[nH]1)c1c(Cl)cc(Cl)cc1Cl`, greater than 5 µM.
`CC(C)C(NC(=O)OC(C)(C)C)C(=O)NCc1nc(-c2ccncc2)n[nH]1` (stereo not given): the IC50 was greater than 5 µM.
In turn, `O=C(NCc1nc(-c2ccncc2)n[nH]1)c1ccc2cc(O)ccc2c1` had an IC50 of no more than 5 µM.
To `O=C(c1cccs1)N1CCCC1c1nc(-c2ccncc2)n[nH]1` (stereo not given) belongs greater than 5 µM.
To `CN(Cc1nc(-c2ccncc2)n[nH]1)C(=O)c1ccc(O)cc1O` belongs greater than 5 µM; to `O=C(NCc1nc(-c2ccncc2)n[nH]1)c1ccccc1Cc1ccccc1`, greater than 5 µM; to `Cn1nc(-c2ccncc2)nc1CNC(=O)c1cccs1`, greater than 5 µM.
To `O=C(NCc1nc(-c2ccncc2)n[nH]1)c1cc(F)c(F)c(O)c1F` belongs greater than 5 µM; to `O=C(C=Cc1ccccc1Cl)NCc1nc(-c2ccncc2)n[nH]1`, greater than 5 µM.
`CC(C(=O)NCc1nc(-c2ccncc2)n[nH]1)c1cccc(C(=O)c2ccccc2)c1` (stereo not given) returned an IC50 greater than 5 µM.
Next, `COc1ccc(C(=O)NCc2nc(-c3ccncc3)no2)cc1`: greater than 5 µM.
Compound `CCc1ccc(C(=O)NCc2nc(-c3c[nH]c4ncccc34)n[nH]2)cc1` registered an IC50 greater than 5 µM.
As for `CCCCOc1ccc(C(=O)NCc2nc(-c3c[nH]c4ncccc34)n[nH]2)cc1`, the IC50 is greater than 5 µM.
For the compound `O=C(NCc1nc(-c2c[nH]c3ncccc23)n[nH]1)c1cc2ccccc2o1`, the IC50 was greater than 5 µM.
As for `O=C(Cc1ccc(Br)cc1)NCc1nc(-c2ccncc2)n[nH]1`, the IC50 was greater than 5 µM.
Next, `O=C(Nc1cccc2c(-c3ccncc3)n[nH]c12)c1cccs1`: greater than 5 µM; `CCCCCc1ccc(C(=O)NCc2nc(-c3c[nH]c4ncccc34)n[nH]2)cc1`: greater than 5 µM.
In the case of `CCCCCc1ccc(C(=O)NCc2nc(-c3ccncc3)n[nH]2)cc1`, the IC50 was greater than 5 µM.
To `O=C(NCc1nc(-c2ccncc2)n[nH]1)c1cccc(Br)n1` belongs greater than 5 µM; to `O=C(NCc1nc(-c2ccncc2)n[nH]1)c1ccc(O)cc1`, no more than 5 µM.
To `COc1cc(OC)c(C(=O)NCc2nc(-c3c[nH]c4ncccc34)n[nH]2)cc1OC` belongs greater than 5 µM.
Compound `COc1ccc(C(=O)NCc2nc(-c3ccncc3)n[nH]2)cc1C` gave an IC50 greater than 5 µM.
Next, `COc1cccc(C(=O)NCc2nc(-c3c[nH]c4ncccc34)cs2)c1`: no more than 5 µM; `Cc1cc(C)cc(C(=O)NCc2nc(-c3ccncc3)n[nH]2)c1`: greater than 5 µM; `O=C(NCc1nc(-c2ccncc2)n[nH]1)c1cccc(Cl)c1[N+](=O)[O-]`: no more than 5 µM.
The compound `CC(=O)Oc1ccccc1C(=O)NCc1nc(-c2ccncc2)n[nH]1` displayed an IC50 of no more than 5 µM.
Regarding `O=CC(=O)NCc1nc(-c2c[nH]c3ncccc23)n[nH]1`, the IC50 was greater than 5 µM.
With `O=C(NCc1c[nH]c(-c2ccncc2)n1)c1cccs1`, the IC50 was greater than 5 µM.
To `O=C(NCc1nc(-c2ccncc2)n[nH]1)c1cc(Cl)ccc1O` belongs greater than 5 µM; to `O=C(NCc1nc(-c2c[nH]c3ncccc23)n[nH]1)c1cccc(Cl)c1[N+](=O)[O-]`, greater than 5 µM.
Next, `O=C(NCc1nc(-c2ccncc2)n[nH]1)c1cc(O)c(O)c(O)c1`: greater than 5 µM; `Cc1ccccc1CCC(=O)NCc1nc(-c2c[nH]c3ncccc23)n[nH]1`: greater than 5 µM; `O=C(NCc1nc(-c2ccncc2)n[nH]1)c1ccc(C(F)(F)F)cc1[N+](=O)[O-]`: greater than 5 µM.
Compound `CCC(=O)C(=O)NCc1nc(-c2ccncc2)n[nH]1` showed an IC50 greater than 5 µM.
To `CC(C)CC(=O)NCc1nc(-c2c[nH]c3ncccc23)n[nH]1` belongs greater than 5 µM; to `O=C(NCc1nc(-c2c[nH]c3ncccc23)n[nH]1)c1ccc(F)cc1Cl`, greater than 5 µM; to `Cc1ccc(C(=O)CCC(=O)NCc2nc(-c3c[nH]c4ncccc34)n[nH]2)cc1`, greater than 5 µM.
On to `CC(C)(C)OC(=O)NC(Cc1ccccc1)C(=O)NCc1nc(-c2ccncc2)n[nH]1` (stereo not given), for which the IC50 was greater than 5 µM.
Next, `CC(=O)NCC(=O)NCc1nc(-c2c[nH]c3ncccc23)n[nH]1`: greater than 5 µM.
`O=C(NCc1cc(-c2ccncc2)n[nH]1)c1ccc(O)cc1O` came in with an IC50 of no more than 5 µM.
To `O=C(CCc1cccc(Br)c1)NCc1nc(-c2c[nH]c3ncccc23)n[nH]1` belongs greater than 5 µM.
The compound `COc1cc(Cl)ccc1C(=O)NCc1nc(-c2c[nH]c3ncccc23)n[nH]1` registered an IC50 greater than 5 µM.
For `O=C(Cc1c(F)cccc1F)NCc1nc(-c2c[nH]c3ncccc23)n[nH]1`, the IC50 was greater than 5 µM.
Next, `O=C(NCc1nc(-c2c[nH]c3ncccc23)n[nH]1)c1cc([N+](=O)[O-])ccc1Cl`: greater than 5 µM; `O=C(NCc1nc(-c2c[nH]c3ncccc23)n[nH]1)c1cc(O)ccc1O`: greater than 5 µM.
To `COc1cc(C(=O)NCc2nc(-c3c[nH]c4ncccc34)n[nH]2)cc(Cl)n1` belongs greater than 5 µM; to `O=C(NCc1nc(-c2c[nH]c3ncccc23)n[nH]1)c1ccc(-c2ccc(O)cc2)cc1`, greater than 5 µM; to `O=C(NCc1nc(-c2ccncc2)c[nH]1)c1cccs1`, no more than 5 µM.
As for `CC(C)(C)OC(=O)NC(Cc1ccccn1)C(=O)NCc1nc(-c2c[nH]c3ncccc23)n[nH]1` (stereo not given), the IC50 was greater than 5 µM.
In turn, `O=C(NCc1nc(-c2c[nH]c3ncccc23)n[nH]1)c1ccc(Cl)cc1O` showed an IC50 greater than 5 µM.
Take `Cc1cccc(C(=O)NCc2nc(-c3c[nH]c4ncccc34)n[nH]2)c1`: the IC50 is greater than 5 µM.
On to `CCCCc1ccc(C(=O)NCc2nc(-c3c[nH]c4ncccc34)n[nH]2)cc1`, for which the IC50 is greater than 5 µM.
To `O=C(C=Cc1ccccc1O)NCc1nc(-c2c[nH]c3ncccc23)n[nH]1` belongs greater than 5 µM.
To `CS(=O)(=O)Nc1cccc(C(=O)NCc2nc(-c3c[nH]c4ncccc34)cs2)c1` belongs no more than 5 µM; to `O=C(NCc1nc(-c2ccncc2)co1)c1ccc(O)cc1O`, no more than 5 µM.
As for `Cc1nc(Br)sc1C(=O)NCc1nc(-c2ccncc2)n[nH]1`, the IC50 is greater than 5 µM.
Next, `Cc1ccc(C(=O)CCC(=O)NCc2nc(-c3ccncc3)n[nH]2)cc1`: greater than 5 µM; `O=C(NCc1nc(-c2c[nH]c3ncccc23)n[nH]1)c1cc(O)ccc1[N+](=O)[O-]`: greater than 5 µM; `CC(C)c1cc(C(=O)NCc2nc(-c3ccncc3)n[nH]2)c(O)c(C(C)C)c1`: greater than 5 µM.
In turn, `O=C(NCc1nc(-c2c[nH]c3ncccc23)n[nH]1)c1cccc(F)c1` showed an IC50 greater than 5 µM.
Next, `Cc1ccc(C)c(C(=O)NCc2nc(-c3c[nH]c4ncccc34)n[nH]2)c1`: greater than 5 µM; `Cc1c(C(=O)NCc2nc(-c3c[nH]c4ncccc34)n[nH]2)oc2ccccc12`: greater than 5 µM.
Next, `O=C(NCc1nc(-c2ccncc2)n[nH]1)c1cc(Cl)ccc1Cl`: greater than 5 µM.
